Data as given in patent publication US3932383A, “9-Dihydroniddamycin A compounds and related 3-(O)-esters and the process for their preparation” (Abbott Laboratories, priority 1974, dated 1976).
In brackets after ≈: the same amount, converted by molar mass.

How the values were obtained:
Assay type in all cases: cell-based
[1] = tested on: Streptococcus pyogenes C203; assay: two-fold tube dilution test; details: brain-heart infusion broth, 24 hours at 37° C., read-out: Minimum Inhibitory Concentration
Method: (§1) Three niddamycin and two dihydroniddamycin compounds were tested for their activity against Streptococcus pyogenes C203, Diplococcus pneumoniae 6301 and Mycoplasma pneumoniae FH.
(§2) A standard two-fold tube dilution test was used. The medium and inoculum were varied with each culture.
In the test for activity against Streptococcus pyrogenes C203, 5 ml. portions of brain-heart infusion broth were used with 0.1 ml. of a 1:100 dilution culture. The test was incubated for 24 hours at 37° C.

Mycoplasma pneumoniae FH [2] = assay: two-fold tube dilution test; details: 144 h, PPLO broth, 6 days at 37° C., read-out: Minimum Inhibitory Concentration
Method: as §1, §2
In the test for activity against Mycoplasma pneumoniae FH, 4.5 ml. portions of PPLO broth were used with 0.5 ml. of a 1:100 dilution culture. the test was incubated for 6 days at 37° C.

Escherichia coli Juhl = assay: agar two-fold dilution test; details: 37° C., read-out: Minimum Inhibitory Concentration
Method: (§3) Two niddamycin derivatives were tested for their activity against 21 organisms.
(§4) An agar dilution two-fold dilution test was used for the first 14 bacterial organisms, while the remaining seven were tested by means of a two-fold tube dilution method. The incubation for all the tests was carried out at 37° C.
(§5) The niddamycin base compound (M-188 ) was used as the control compound.

[3] = tested on: Klebsiella pneumoniae 10031; assay: agar two-fold dilution test; details: 37° C., read-out: Minimum Inhibitory Concentration
Method: as §3, §4, §5

[4] = tested on: Pasteurella multocida 10544; assay: agar two-fold dilution test; details: 37° C., read-out: Minimum Inhibitory Concentration
Method: as §3, §4, §5

[5] = tested on: Proteus mirabilis Finland No. 9; assay: agar two-fold dilution test; details: 37° C., read-out: Minimum Inhibitory Concentration
Method: as §3, §4, §5

[6] = tested on: Proteus vulgaris Abbott JJ; assay: agar two-fold dilution test; details: 37° C., read-out: Minimum Inhibitory Concentration
Method: as §3, §4, §5

[7] = tested on: Pseudomonas aeruginosa BMH No. 10; assay: agar two-fold dilution test; details: BMHNO.10, 37° C., read-out: Minimum Inhibitory Concentration
Method: as §3, §4, §5

[8] = tested on: Salmonella typhimurium Ed No. 9; assay: agar two-fold dilution test; details: Salmonella enterica, 37° C., read-out: Minimum Inhibitory Concentration
Method: as §3, §4, §5

Shigella sonnei 9290 = assay: agar two-fold dilution test; details: 37° C., read-out: Minimum Inhibitory Concentration
Method: as §3, §4, §5

[9] = tested on: Staphylococcus aureus 9144; assay: agar two-fold dilution test; details: 37° C., read-out: Minimum Inhibitory Concentration
Method: as §3, §4, §5

[10] = tested on: Staphylococcus aureus Smith ER; assay: agar two-fold dilution test; details: read-out: Minimum Inhibitory Concentration
Method: as §3, §4, §5

[11] = tested on: Staphylococcus aureus Smith; assay: agar two-fold dilution test; details: 37° C., read-out: Minimum Inhibitory Concentration
Method: as §3, §4, §5

[12] = tested on: Staphylococcus aureus Wise 155; assay: agar two-fold dilution test; details: WISE155, 37° C., read-out: Minimum Inhibitory Concentration
Method: as §3, §4, §5

[13] = tested on: Streptococcus faecalis 10541; assay: agar two-fold dilution test; details: Enterococcus faecalis, 37° C., read-out: Minimum Inhibitory Concentration
Method: as §3, §4, §5

[14] = tested on: Streptococcus pyogenes Roper; assay: agar two-fold dilution test; details: 37° C., read-out: Minimum Inhibitory Concentration
Method: as §3, §4, §5

Crithidia fasciculata = assay: two-fold tube dilution method; details: 37° C., read-out: Minimum Inhibitory Concentration
Method: as §3, §4, §5

[15] = tested on: Haemophilus influenzae 9334; assay: two-fold tube dilution method; details: 37° C., read-out: Minimum Inhibitory Concentration
Method: as §3, §4, §5

[16] = tested on: Mycoplasma gallispeticum S6; assay: two-fold tube dilution method; details: 37° C., read-out: Minimum Inhibitory Concentration
Method: as §3, §4, §5

[17] = tested on: Mycoplasma granularum 19168; assay: two-fold tube dilution method; details: Acholeplasma granularum, 37° C., read-out: Minimum Inhibitory Concentration
Method: as §3, §4, §5

[18] = tested on: Mycoplasma hyorhinis 17981; assay: two-fold tube dilution method; details: 37° C., read-out: Minimum Inhibitory Concentration
Method: as §3, §4, §5

Mycoplasma pneumoniae FH [19] = assay: two-fold tube dilution method; details: 37° C. (Table 2), read-out: Minimum Inhibitory Concentration
Method: as §3, §4, §5

[20] = tested on: Trichomonas vaginalis C1M1; assay: two-fold tube dilution method; details: 37° C., read-out: Minimum Inhibitory Concentration
Method: as §3, §4, §5

A. versicolor = assay: standard FG (fungi) screening program; details: Aspergillus versicolor, read-out: Minimum Inhibitory Concentration
Method: (§6) The samples were also tested on the standard FG (fungi) screening program.
as §5

Alternaria label isolate = assay: standard FG (fungi) screening program; details: read-out: Minimum Inhibitory Concentration
Method: as §6, §5

C. globosum = assay: standard FG (fungi) screening program; details: Chaetomium globosum, read-out: Minimum Inhibitory Concentration
Method: as §6, §5

F. oxysporum = assay: standard FG (fungi) screening program; details: Fusarium oxysporum, read-out: Minimum Inhibitory Concentration
Method: as §6, §5

M. verrucaria = assay: standard FG (fungi) screening program; details: read-out: Minimum Inhibitory Concentration
Method: as §6, §5

P. citrinum = assay: standard FG (fungi) screening program; details: Penicillium citrinum, read-out: Minimum Inhibitory Concentration
Method: as §6, §5

Rhizopus nigricans = assay: standard FG (fungi) screening program; details: Rhizopus stolonifer, read-out: Minimum Inhibitory Concentration
Method: as §6, §5

[21] = tested on: Diplococcus pneumoniae 6301; assay: two-fold tube dilution test; details: Streptococcus pneumoniae, brain-heart infusion broth and 20% horse serum, 24 hours at 37° C., read-out: Minimum Inhibitory Concentration
Method: as §1, §2
In the test for activity against Diplococcus pneumoniae 6301, 5 ml. portions of brain-heart infusion broth and 20% horse serum were used with 0.1 ml. of 1:100 dilution culture. The test was incubated for 24 hours at 37° C.

SMILES | MIC [1] [µg/mL] | MIC (Mycoplasma pneumoniae FH [2]) [µg/mL] | MIC (Escherichia coli Juhl) [µg/mL] | MIC [3] [µg/mL] | MIC [4] [µg/mL] | MIC [5] [µg/mL] | MIC [6] [µg/mL] | MIC [7] [µg/mL] | MIC [8] [µg/mL] | MIC (Shigella sonnei 9290) [µg/mL] | MIC [9] [µg/mL] | MIC [10] [µg/mL] | MIC [11] [µg/mL] | MIC [12] [µg/mL] | MIC [13] [µg/mL] | MIC [14] [µg/mL] | MIC (Crithidia fasciculata) [µg/mL] | MIC [15] [µg/mL] | MIC [16] [µg/mL] | MIC [17] [µg/mL] | further results
COC(CC1CC(C)C(O)C=CC=CCC(C)OC(=O)CC(O)C(OC)C1OC1OC(C)C(OC2CC(C)(O)C(OC(=O)CC(C)C)C(C)O2)C(N(C)C)C1O)OC (single isomer, unassigned) [Compound 3, 9-Dihydroniddamycin A dimethyl acetal] | 25 (≈ 30 µM) | 50 (≈ 60.1 µM) |  |  |  |  |  |  |  |  |  |  |  |  |  |  |  |  |  |  | 
COC1C(O)CC(=O)OC(C)CC=CC=CC(O)C(C)CC(CC=O)C1OC1OC(C)C(OC2CC(C)(O)C(OC(=O)CC(C)C)C(C)O2)C(N(C)C)C1O (single isomer, unassigned) [Compound 5, 9-Dihydroniddamycin A] |  |  | > 100 | 12.5 (≈ 15.9 µM) | 12.5 (≈ 15.9 µM) | > 100 | > 100 | > 100 | > 100 | > 100 | 0.78 (≈ 0.992 µM) | > 100 | 0.78 (≈ 0.992 µM) | 1.56 (≈ 1.98 µM) | 0.78 (≈ 0.992 µM) | > 100 | > 100 | 6.2 (≈ 7.89 µM) | 0.25 (≈ 0.318 µM) | 2.5 (≈ 3.18 µM) | MIC [18]: 0.25 µg/mL (≈ 0.318 µM); MIC (Mycoplasma pneumoniae FH [19]): 50 µg/mL (≈ 63.6 µM); MIC [20]: > 100 µg/mL; MIC (A. versicolor): > 100 µg/mL; MIC (Alternaria label isolate): > 100 µg/mL; MIC (C. globosum): > 100 µg/mL; MIC (F. oxysporum): > 100 µg/mL; MIC (M. verrucaria): > 100 µg/mL; MIC (P. citrinum): > 100 µg/mL; MIC (Rhizopus nigricans): > 100 µg/mL
COC(CC1CC(C)C(O)C=CC=CCC(C)OC(=O)CC(OC(C)=O)C(OC)C1OC1OC(C)C(OC2CC(C)(O)C(OC(=O)CC(C)C)C(C)O2)C(N(C)C)C1O)OC (single isomer, unassigned) [Compound 7B, 3-(O)-Acetyl-9-dihydroniddamycin A dimethyl acetal] | 100 (≈ 114 µM) | 50 (≈ 57.2 µM) |  |  |  |  |  |  |  |  |  |  |  |  |  |  |  |  |  |  | 
COC1C(OC(C)=O)CC(=O)OC(C)CC=CC=CC(O)C(C)CC(CC=O)C1OC1OC(C)C(OC2CC(C)(O)C(OC(=O)CC(C)C)C(C)O2)C(N(C)C)C1O (single isomer, unassigned) [Compound 8B, 3-(O)-Acetyl-9-Dihydroniddamycin A] |  |  | > 100 | 25 (≈ 30.2 µM) | 12.5 (≈ 15.1 µM) | > 100 | > 100 | > 100 | > 100 | > 100 | 0.78 (≈ 0.942 µM) | > 100 | 0.78 (≈ 0.942 µM) | 1.56 (≈ 1.88 µM) | 1.56 (≈ 1.88 µM) | > 100 | > 100 | 6.2 (≈ 7.49 µM) | 0.25 (≈ 0.302 µM) | 5 (≈ 6.04 µM) | MIC [18]: 0.5 µg/mL (≈ 0.604 µM); MIC (Mycoplasma pneumoniae FH [19]): 25 µg/mL (≈ 30.2 µM); MIC [20]: > 100 µg/mL; MIC (A. versicolor): > 100 µg/mL; MIC (Alternaria label isolate): > 100 µg/mL; MIC (C. globosum): > 100 µg/mL; MIC (F. oxysporum): > 100 µg/mL; MIC (M. verrucaria): > 100 µg/mL; MIC (P. citrinum): > 100 µg/mL; MIC (Rhizopus nigricans): > 100 µg/mL
COC(CC1CC(C)C(=O)C=CC=CCC(C)OC(=O)CC(O)C(OC)C1OC1OC(C)C(OC2CC(C)(O)C(OC(=O)CC(C)C)C(C)O2)C(N(C)C)C1O)OC (stereo not drawn) [Compound 2, Niddamycin dimethyl acetal] | 0.78 (≈ 0.94 µM) | 25 (≈ 30.1 µM) |  |  |  |  |  |  |  |  |  |  |  |  |  |  |  |  |  |  | MIC [21]: ≤ 1.56 µg/mL
COC(CC1CC(C)C(=O)C=CC=CCC(C)OC(=O)CC(OC(C)=O)C(OC)C1OC1OC(C)C(OC2CC(C)(O)C(OC(=O)CC(C)C)C(C)O2)C(N(C)C)C1OC(C)=O)OC (stereo not drawn) [Compound 4B, 2',3-Di-(O)-acetylniddamycin dimethyl acetal] | > 100 | > 100 |  |  |  |  |  |  |  |  |  |  |  |  |  |  |  |  |  |  | MIC [21]: > 100 µg/mL
COC(CC1CC(C)C(=O)C=CC=CCC(C)OC(=O)CC(OC(C)=O)C(OC)C1OC1OC(C)C(OC2CC(C)(O)C(OC(=O)CC(C)C)C(C)O2)C(N(C)C)C1O)OC (stereo not drawn) [Compound 6B, 3-(O)-Acetylniddamycin dimethyl acetal] | 12.5 (≈ 14.3 µM) | 25 (≈ 28.7 µM) |  |  |  |  |  |  |  |  |  |  |  |  |  |  |  |  |  |  | 
COC1C(O)CC(=O)OC(C)CC=CC=CC(=O)C(C)CC(CC=O)C1OC1OC(C)C(OC2CC(C)(O)C(OC(=O)CC(C)C)C(C)O2)C(N(C)C)C1O (stereo not drawn) [Niddamycin Base, niddamycin] |  |  | > 100 | 12.5 (≈ 15.9 µM) | 12.5 (≈ 15.9 µM) | > 100 | > 100 | > 100 | > 100 | > 100 | 0.39 (≈ 0.497 µM) | > 100 | 0.39 (≈ 0.497 µM) | 0.78 (≈ 0.995 µM) | 0.78 (≈ 0.995 µM) | > 100 | > 100 | 3.1 (≈ 3.95 µM) | 0.1 (≈ 0.128 µM) | 1 (≈ 1.28 µM) | MIC [18]: 0.25 µg/mL (≈ 0.319 µM); MIC (Mycoplasma pneumoniae FH [19]): 10 µg/mL (≈ 12.8 µM); MIC [20]: > 100 µg/mL; MIC (A. versicolor): > 100 µg/mL; MIC (Alternaria label isolate): > 100 µg/mL; MIC (C. globosum): > 100 µg/mL; MIC (F. oxysporum): > 100 µg/mL; MIC (M. verrucaria): > 100 µg/mL; MIC (P. citrinum): > 100 µg/mL; MIC (Rhizopus nigricans): > 100 µg/mL
